Tests used:
[1] = humans with psoriasis, topical betamethasone dipropionate 0.05% spray or lotion BID for 15 days; majority of subjects not measurable; cited from earlier work
[2] = cited from earlier work
[3] = Forced degradation of fluticasone propionate, percent recovery by HPLC; assay type: physicochemical
Description: A similar analysis was performed of the 0.005% fluticasone propionate cream (lot #2021-07-01).

[4] = Recovery of force-degraded fluticasone propionate spiked into placebo and of active cream, HPLC; assay type: physicochemical; settings: Spiked into placebo
Pseudomonas aeruginosa = settings: cited from earlier work
[5] = system: Streptococci, Staphylococci, Gardnerella vaginalis, and Corynebacteria; settings: cited from earlier work

In the case of `CCC(=O)OCC(=O)[C@@]1(OC(=O)CC)[C@@H](C)C[C@H]2[C@@H]3CCC4=CC(=O)C=C[C@]4(C)[C@@]3(F)[C@@H](O)C[C@@]21C` [Betamethasone dipropionate, 9-Fluoro-11β,17,21-trihydroxy-16β-methylpregna-1,4-diene-3,20-dione 17,21-dipropionate], the plasma concentration [1] is listed as under 5 pg/mL and the “Biological Half Life” value [2] is listed as 36-54 Hours.
With `CCC(=O)O[C@]1(C(=O)SCF)[C@H](C)C[C@H]2[C@@H]3C[C@H](F)C4=CC(=O)C=C[C@]4(C)[C@@]3(F)[C@@H](O)C[C@@]21C` [fluticasone propionate] the “Actual Amount” value ([3]; Acid (0.1N HCl, 1 hour)) was 12.1791 µg/mL, the “Actual Amount” value ([3]; Base (0.1N NaOH, 1 hour)) was 11.7484 µg/mL and the “Actual Amount” value ([3]; Control) was 12.5695 µg/mL. For the same compound, the “Actual Amount” value ([3]; Heat (60° C., 3 days)) was 12.0739 µg/mL, the “Actual Amount” value ([3]; Light (white light, 3 days)) was 11.6609 µg/mL and the “Actual Amount” value ([3]; Peroxide (3% H2O2, 1 hour)) was 16.4961 µg/mL. For the same compound, the “Peak Area FP” value ([4]; Acid) was 2.377, the “Peak Area RRT = 0.32” value ([4]; Acid) was 0.033 and the “Peak Area RRT = 0.33” value ([4]; Acid) was “no peak”. For the same compound, the “Peak Area RRT = 1.17” value ([4]; Acid) was 0.221, the “Total MFM-Related Area” value ([4]; Acid) was 2.631 and the “Peak Area FP” value ([4]; Base) was 2.395. For the same compound, the “Peak Area RRT = 0.32” value ([4]; Base) was 0.032, the “Peak Area RRT = 0.33” value ([4]; Base) was “no peak” and the “Peak Area RRT = 1.17” value ([4]; Base) was 0.166. The “Total MFM-Related Area” value ([4]; Base) was 2.593, the “Peak Area FP” value ([4]; Control) was 2.607 and the “Peak Area RRT = 0.32” value ([4]; Control) was “no peak”. The “Peak Area RRT = 0.33” value ([4]; Control) was 0.012, the “Peak Area RRT = 1.17” value ([4]; Control) was 0.046 and the “Total MFM-Related Area” value ([4]; Control) was 2.665. The “Peak Area FP” value ([4]; Heat) was 2.924, the “Peak Area RRT = 0.32” value ([4]; Heat) was “no peak” and the “Peak Area RRT = 0.33” value ([4]; Heat) was “no peak”. For the same compound, the “Peak Area RRT = 1.17” value ([4]; Heat) was 0.183, the “Total MFM-Related Area” value ([4]; Heat) was 3.107 and the “Peak Area FP” value ([4]; Light) was 2.599. The “Peak Area RRT = 0.33” value ([4]; Light) was “no peak”, the “Peak Area RRT = 1.17” value ([4]; Light) was 0.159 and the “Total MFM-Related Area” value ([4]; Light) was 2.791. For the same compound, the “Peak Area FP” value ([4]; Peroxide) was 2.424, the “Peak Area RRT = 0.32” value ([4]; Peroxide) was “no peak” and the “Peak Area RRT = 0.33” value ([4]; Peroxide) was “no peak”. For the same compound, the “Peak Area RRT = 1.17” value ([4]; Peroxide) was “no peak” and the “Total MFM-Related Area” value ([4]; Peroxide) was 2.424.
For `Clc1ccccc1C(c1ccccc1)(c1ccccc1)n1ccnc1` [clotrimazole], the “effect on Pseudomonas aeruginosa” value (Pseudomonas aeruginosa) is given as “reduction” and the antibacterial activity [5] is given as “antibacterial activity”.
In the case of `C[C@]12C=CC(=O)C=C1CC[C@@H]1[C@@H]2[C@@H](O)C[C@@]2(C)[C@H]1CC[C@]2(O)C(=O)CO` [prednisolone], the “Biological Half Life” value [2] is given as 18-36 Hours.
In the case of `C[C@H]1C[C@@H]2[C@H]([C@@H](O)C[C@@]3(C)[C@H]2CC[C@]3(O)C(=O)CO)[C@@]2(C)C=CC(=O)C=C12` [Methyl-prednisolone, methylprednisolone], the “Biological Half Life” value [2] is listed as 18-36 Hours.
For `C[C@]12CCC(=O)C=C1CC[C@@H]1[C@@H]2[C@@H](O)C[C@@]2(C)[C@H]1CC[C@]2(O)C(=O)CO` [hydrocortisone], the “Biological Half Life” value [2] is given as 8-12 Hours.
For `C[C@]12C=CC(=O)C=C1CC[C@H]1[C@@H]3C[C@@H](O)[C@](O)(C(=O)CO)[C@@]3(C)C[C@H](O)[C@@]12F` [triamcinolone], the “Biological Half Life” value [2] is given as 18-36 Hours.

From patent US20230277452A1, “COMPOSITIONS, DEVICES AND METHODS FOR TREATING NASAL, OTIC AND OTHER TISSUE INFECTION AND/OR INFLAMMATION” (priority 2020, published 2023)
